Data as given in patent US9862676B2, “Hydroxamic acid derivative or salt thereof” (TOYAMA CHEMICAL CO., LTD., priority 2013, dated 2018).
≈ marks a conversion by molar mass, not a printed value.

How the values were obtained:
[1] = tested on: Pseudomonas aeruginosa ATCC27853 strain; test: Antibacterial activity, MIC by broth microdilution (CLSI); assay type: cell-based
Method: (§1) The minimum inhibitory concentration (MIC) was measured according to the CLSI (Clinical and Laboratory Standards Institute) standard method using a broth microdilution method given below. The bacteria used were a Pseudomonas aeruginosa ATCC27853 strain, an Escherichia coli ATCC25922 strain and a Klebsiella pneumoniae ATCC13883 strain. Test bacterial cells of each strain cultured overnight in a Mueller-Hinton agar medium were scraped off and suspended at the McFarland 0.5 standard, and this suspension was diluted 10-fold to prepare an inoculum solution. The inoculum solution (0.005 mL) was inoculated to a cation-adjusted Mueller-Hinton medium containing each test compound and cultured at 35° C. for 16 to 20 hours. The minimum drug concentration at which bacterial growth was not visible to the naked eye was defined as MIC.

[2] = tested on: Klebsiella pneumoniae ATCC13883 strain; test: as above; assay type: cell-based
Method: as §1

[3] = tested on: Escherichia coli ATCC25922 strain; test: as above; assay type: cell-based
Method: as §1

[4] = biological target: T1, Pseudomonas aeruginosa LpxC enzyme (Pseudomonas aeruginosa, UniProt P47205); test: Test to evaluate Pseudomonas aeruginosa LpxC enzyme inhibitory activity; assay type: biochemical
T1 construct: made in house; host or cells: Escherichia coli
T1 sequence (P47205 1-303): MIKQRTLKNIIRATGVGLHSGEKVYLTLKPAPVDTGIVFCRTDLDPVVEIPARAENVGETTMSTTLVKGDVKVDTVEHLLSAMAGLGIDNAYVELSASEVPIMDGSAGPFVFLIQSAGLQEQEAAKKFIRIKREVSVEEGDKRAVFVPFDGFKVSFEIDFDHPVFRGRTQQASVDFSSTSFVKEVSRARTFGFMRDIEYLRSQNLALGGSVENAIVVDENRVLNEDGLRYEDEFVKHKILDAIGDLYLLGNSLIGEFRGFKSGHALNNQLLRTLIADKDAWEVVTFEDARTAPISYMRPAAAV
Method: The Pseudomonas aeruginosa LpxC enzyme activity was measured by reacting LpxC with its substrate UDP-3-O—(R-3-hydroxydecanoyl)-N-acetylglucosamine and measuring the amount of the reaction product by the quantification of an amino group present in the product. This measurement was carried out according to a method described in, for example, International Publication No. WO 11/132712 pamphlet or a method similar thereto.
Specifically, to the Pseudomonas aeruginosa LpxC enzyme (which was obtained by preparing chromosomal DNA from Pseudomonas aeruginosa, obtaining the Pseudomonas aeruginosa LpxC gene by PCR (polymerase chain reaction) using LpxC-specific primers, and incorporating this gene into a vector, followed by gene expression using Escherichia coli), 20 μmol/L UDP-3-O—(R-3-hydroxydecanoyl)-N-acetylglucosamine (Wako Pure Chemical Industries, Ltd.) was added, and the mixture was incubated at 25° C. for 1 hour. This reaction was carried out in a 40 mmol/L HEPES buffer solution (pH 8.0) containing 0.02% Brij 35 and 80 μmol/L dithiothreitol. The reaction was terminated by the addition of 20% acetic acid (final concentration: 0.95%) to the reaction solution. Then, fluorescamine (final concentration: 1.6 mg/mL) dissolved in anhydrous dioxane was added thereto. The amount of the reaction product was detected at an excitation wavelength/fluorescence wavelength=390 nm/495 nm. Each test compound was allowed to coexist at various concentrations in the reaction to obtain an inhibition curve.

[5] = Test on inhibition of Vero cell growth (XTT); assay type: cell-based; conditions: African green monkey, Vero cells, 3 days culture, read-out: CC50 (concentration inhibiting 50% of cell growth)
Method: Each test compound was dissolved in dimethyl sulfoxide, adjusted to each concentration using E'MEM, and then dispensed at 0.1 mL/well to 96-well microplates. The Vero cell suspension was prepared at 3×10^4 cells/mL using E'MEM supplemented with 20% FBS, inoculated thereto at 0.1 mL/well, and cultured at 37° C. for 3 days under 5% CO2. At the completion of the culture, PBS supplemented with 1 mg/mL 2,3-bis-(2-methoxy-4-nitro-5-sulfophenyl)-5-((phenylamino)carbonyl)-2H-tetrazolium inner salt monosodium salt (XTT) and 25 μM phenazine methosulfate (PMS) was prepared and added thereto at 50 μL/well. Approximately 2 hours later, the absorbance at 450 nm was measured using a microplate reader.

[6] = tested on: multidrug-resistant Pseudomonas aeruginosa clinical isolate (S-2838 strain); test: Defense against mouse systemic infection using multidrug-resistant Pseudomonas aeruginosa; assay type: in vivo; conditions: male ICR mice, S-2838 strain i.p.
Method: The mice used were male ICR SPF mice (4 weeks old: 5 individuals per group). To prepare a bacterial inoculum solution, a multidrug-resistant Pseudomonas aeruginosa clinical isolate (S-2838 strain) cultured overnight at 37° C. on a Mueller-Hinton agar plate was cultured for 5 hours in a cation-adjusted Mueller-Hinton medium and then diluted 10-fold with a 10% mucin/phosphate buffer solution to prepare the inoculum solution. Infection was induced by the intraperitoneal inoculation of 0.5 mL of the inoculum solution (approximately 10^6 CFU/mouse) to each mouse. Each test compound was dissolved in a 10% hydroxypropylated β-cyclodextrin/2.5% mannitol aqueous solution and intravenously administered to the tail a single dose of 50 mg/kg at 1 hour after the infection. Three days after the infection, the number of survivors was recorded.

[7] = tested on: Chinese hamster lung fibroblasts (CHL/IU cells); test: In vitro micronucleus test for genotoxicity; assay type: cell-based; conditions: dose of 1 mmol/L or lower, short-time treatment (with and without metabolic activation) and 30-hour treatment methods
Method: In order to examine the inducibility of the chromosomal aberrations by each test compound in cultured cells, the in vitro micronucleus test was carried out. This test was carried out by a short-time treatment method (in the presence and absence of a metabolic activation) and a 30-hour treatment method using Chinese hamster lung fibroblasts (CHL/IU cells). The concentration of the test compound was set to 1.00 mmol/L as the maximum dose with reference to the “Guidance on Genotoxicity Testing and Data Interpretation for Pharmaceuticals Intended for Human Use”. Specimens were observed as to doses of 0.25, 0.50 and 1.00 mmol/L. The cells were inoculated at 15×10^4 cells to a 60-mm dish (IWAKI) and precultured at 37° C. for 24 hours under 5% CO2 using a MEM medium (Sigma-Aldrich Co., Ltd.) containing 10% newborn calf serum (Sigma-Aldrich Co., Ltd.) and 50 U/mL-50 μg/mL Penicillin-Streptomycin (Sigma-Aldrich Co., Ltd.). After the completion of the preculture, a vehicle (DMSO) or each test compound was added thereto. In the short-time treatment method, 6 hours after the culture, the cells were washed with PBS(−) (Sigma-Aldrich Co., Ltd.), and then, the medium was replaced with a fresh medium, followed by further culture for 24 hours. In the 30-hour treatment method, after the addition of the test compound, the cells were cultured for 30 hours. […]

hERG current = biological target: T2, hERG current (Homo sapiens, UniProt Q12809); test: Evaluation of hERG inhibitory activity (whole cell clamp, HEK 293 cells); assay type: cell-based; conditions: up to 300 μmol/L; HEK 293 cells transfected with hERG gene, tail current 10 minutes after application
T2 construct: host or cells: HEK 293 cells
Method: HEK 293 cells (human embryo kidney 293 cells, Cytomyx LLC) transfected with hERG gene (human ether-a-go-go related gene) were used. The culture solution used was a MEM medium containing 10% fetal bovine serum and 1% nonessential amino acid and further supplemented with Geneticin at a concentration of 400 μg/mL. The cells were cultured in a carbonic acid gas incubator (37.0° C., 5% CO2).
The hERG current was measured by a whole cell clamp method. A glass cover with the cells for measurement attached thereto was placed in a dish and perfused at a rate of 2 mL/min with a perfusate (composition: 137 mmol/L NaCl, 4 mmol/L KCl, 10 mmol/L HEPES, 1.8 mmol/L CaCl2, 1 mmol/L MgCl2, 10 mmol/L glucose, pH 7.4). The inside temperature of the perfusion chamber was kept at 25° C. […]
Before the application and 10 minutes after the application, the peak value of tail current in the hERG current waveform was analyzed to calculate the ratio of the value 10 minutes after the application to the value before the application (relative value, %).

[8] = single intravenous dose 50 mg/kg 1 hour after infection

T2 sequence (Q12809 whole entry): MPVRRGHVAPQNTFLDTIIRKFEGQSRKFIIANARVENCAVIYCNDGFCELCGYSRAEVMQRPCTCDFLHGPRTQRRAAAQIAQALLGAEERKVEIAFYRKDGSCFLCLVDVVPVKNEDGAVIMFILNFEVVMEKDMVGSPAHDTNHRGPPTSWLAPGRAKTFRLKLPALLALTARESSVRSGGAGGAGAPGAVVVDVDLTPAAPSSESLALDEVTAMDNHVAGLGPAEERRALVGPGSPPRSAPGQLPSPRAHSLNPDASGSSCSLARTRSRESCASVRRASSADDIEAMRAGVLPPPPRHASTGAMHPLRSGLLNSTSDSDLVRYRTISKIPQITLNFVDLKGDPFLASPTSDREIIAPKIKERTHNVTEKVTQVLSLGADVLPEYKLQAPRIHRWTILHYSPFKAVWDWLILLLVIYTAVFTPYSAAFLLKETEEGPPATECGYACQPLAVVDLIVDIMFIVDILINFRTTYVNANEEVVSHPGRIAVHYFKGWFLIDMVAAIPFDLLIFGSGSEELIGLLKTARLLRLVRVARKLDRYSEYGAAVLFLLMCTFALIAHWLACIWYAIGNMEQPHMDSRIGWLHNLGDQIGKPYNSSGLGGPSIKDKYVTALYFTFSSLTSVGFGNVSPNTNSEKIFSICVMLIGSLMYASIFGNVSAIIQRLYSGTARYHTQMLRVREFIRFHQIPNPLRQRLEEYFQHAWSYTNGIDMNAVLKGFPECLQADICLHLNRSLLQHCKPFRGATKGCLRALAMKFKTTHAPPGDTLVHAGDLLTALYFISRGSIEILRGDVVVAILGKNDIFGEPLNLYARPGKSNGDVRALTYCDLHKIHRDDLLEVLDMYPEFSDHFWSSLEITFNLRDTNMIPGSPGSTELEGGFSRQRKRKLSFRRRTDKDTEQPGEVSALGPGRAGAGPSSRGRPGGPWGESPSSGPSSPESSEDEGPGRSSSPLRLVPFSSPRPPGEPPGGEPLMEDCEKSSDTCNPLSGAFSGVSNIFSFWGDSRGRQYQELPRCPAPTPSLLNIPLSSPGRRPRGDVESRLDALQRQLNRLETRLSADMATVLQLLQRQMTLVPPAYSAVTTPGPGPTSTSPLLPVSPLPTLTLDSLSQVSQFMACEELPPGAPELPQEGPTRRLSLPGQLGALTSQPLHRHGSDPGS

| MIC [2] | MIC [3] | Structure (SMILES) | MIC [1] | IC50 [4] | CC50 at 3 days [5] | mice surviving 3 days after the bacterial inoculation [6, 8] | mice surviving 3 days after the bacterial inoculation ([6]; 25 mg/kg) | in vitro micronucleus test result [7] | hERG inhibitory activity (hERG current) |
| --- | --- | --- | --- | --- | --- | --- | --- | --- | --- |
| 1 mg/L (≈ 2.21 µM) | 0.25 mg/L (≈ 0.551 µM) | CNC(=O)[C@@](C)(C(=O)NO)N(C)C(=O)c1ccc(C#Cc2ccc(COCCO)cc2)cc1 [Example 1, (2S)—N-hydroxy-2-((4-((4-((2-hydroxyethoxy)methyl)phenyl)ethynyl)benzoyl)(methyl)amino)-N′,2-dimethyl-malonamide] | 1 mg/L (≈ 2.21 µM) | < 0.05 µM | ≥ 100 mg/L | – | – | – | – |
| – | – | CNC(=O)[C@@](C)(C(=O)NO)N(C)C(=O)c1ccc(C#Cc2ccc([C@@H](O)CO)cc2)cc1 [Example 19, (2S)-2-((4-((4-((1R)-1,2-dihydroxyethyl)phenyl)ethynyl)benzoyl)(methyl)amino)-N-hydroxy-N′,2-dimethyl-malonamide] | 1 mg/L (≈ 2.28 µM) | < 0.05 µM | ≥ 100 mg/L | 100% | – | – | – |
| – | – | CNC(=O)[C@@](C)(C(=O)NO)N(C)C(=O)c1ccc(C#Cc2ccc([C@H](O)CO)cc2)cc1 [Example 20, (2S)-2-((4-((4-((1S)-1,2-dihydroxyethyl)phenyl)ethynyl)benzoyl)(methyl)amino)-N-hydroxy-N′,2-dimethyl-malonamide] | 1 mg/L (≈ 2.28 µM) | < 0.05 µM | ≥ 100 mg/L | 100% | ≥ 60% | negative | did not exhibit hERG inhibitory activity |
| 1 mg/L (≈ 2.14 µM) | 0.25 mg/L (≈ 0.535 µM) | CNC(=O)[C@@](C)(C(=O)NO)N(C)C(=O)c1ccc(C#Cc2ccc([C@H](O)CCOC)cc2)cc1 [Example 36, (2S)—N-hydroxy-2-((4-((4-((1R)-1-hydroxy-3-methoxypropyl)phenyl)ethynyl)benzoyl)(methyl)amino)-N′,2-dimethylmalonamide] | 0.5 mg/L (≈ 1.07 µM) | < 0.05 µM | ≥ 100 mg/L | – | – | – | – |
| 1 mg/L (≈ 2.15 µM) | 0.5 mg/L (≈ 1.07 µM) | CNC(=O)[C@@](C)(C(=O)NO)N(C)C(=O)c1ccc(C#Cc2ccc([C@H](O)/C=C/CO)cc2)cc1 [Example 40, (2S)-2-((4-((4-((1R,2E)-1,4-dihydroxybut-2-ene-1-yl)phenyl)ethynyl)benzoyl)(methyl)amino)-N-hydroxy-N′,2-dimethyl-malonamide] | 1 mg/L (≈ 2.15 µM) | < 0.05 µM | – | – | – | – | – |

| Structure (SMILES) | MIC [2] | MIC [3] | MIC [1] | IC50 [4] | CC50 at 3 days [5] | mice surviving 3 days after the bacterial inoculation [6, 8] | mice surviving 3 days after the bacterial inoculation ([6]; 25 mg/kg) | in vitro micronucleus test result [7] | hERG inhibitory activity (hERG current) |
| --- | --- | --- | --- | --- | --- | --- | --- | --- | --- |
| CNC(=O)[C@@](C)(C(=O)NO)N(C)C(=O)c1ccc(C#Cc2ccc([C@H](O)COC)cc2)cc1 [Example 23, (2S)—N-hydroxy-2-((4-((4-((1S)-1-hydroxy-2-methoxyethyl)phenyl)ethynyl)benzoyl)(methyl)amino)-N′,2-dimethyl-malonamide] | 1 mg/L (≈ 2.21 µM) | 0.25 mg/L (≈ 0.551 µM) | 1 mg/L (≈ 2.21 µM) | < 0.05 µM | ≥ 100 mg/L | 100% | – | – | did not exhibit hERG inhibitory activity |
| CNC(=O)[C@@](C)(C(=O)NO)N(C)C(=O)c1ccc(C#Cc2ccc([C@H](O)CCCO)cc2)cc1 [Example 39, (2S)-2-((4-((4-((1R)-1,4-dihydroxybutyl)phenyl)ethynyl)benzoyl)(methyl)amino)-N-hydroxy-N′,2-dimethyl-malonamide] | 1 mg/L (≈ 2.14 µM) | 0.5 mg/L (≈ 1.07 µM) | 1 mg/L (≈ 2.14 µM) | < 0.05 µM | – | 100% | – | – | – |
